Experimental data taken from US20090104145A1, “Mixtures of Anthranilamide Invertebrate Pest Control Agents” (priority 2004, published 2009).

Assays:
Assay in all cases: whole plant or invertebrate
Type in all cases: in vivo
[1] = system: silverleaf whitefly (Bemisia argentifolii Bellows and Perring); conditions: for % mortality (obs): Table 2B, compound alone
Procedure: (§1) The pest control protection afforded by the mixtures or compositions is not limited, however, to these species. The analysis of synergism or antagonism between the mixtures or compositions was determined using Colby's equation. The average % mortality data for the test compounds alone were inserted into the Colby's equation. If the observed average % mortality was higher than “p”, the expected % mortality, the mixture or composition had synergistic effects. If the observed average % mortality was equal to or lower than the expected mortality, the mixture or composition either had no synergistic effect or an antagonistic effect. In these tests, Compound 1 is the compound of Formula 1.
For evaluating control of silverleaf whitefly (Bemisia argentifolii Bellows and Perring) through contact and/or systemic means, each test unit consisted of a small open container with a 12- to 14-day-old cotton plant inside. This was pre-infested by placing test units into cages infested with adult whiteflies so that oviposition on the cotton leaves could occur. The adults were removed from the plants with an air-blast nozzle, and the test units were capped. The test units were then stored 2 to 3 days before spraying.
(§2) Test compounds were formulated using a solution containing 10% acetone, 90% water and 300 ppm X-77® Spreader Lo-Foam Formula non-ionic surfactant containing alkylarylpolyoxyethylene, free fatty acids, glycols and isopropanol (Loveland Industries, Inc.) to provide the desired concentration in ppm. Formulated test solutions were then applied in 1 mL volumes through a SUJ2 atomizer nozzle with ⅛ JJ custom body (Spraying Systems Co.) positioned 1.27 cm (0.5 inches) above the top of each test unit.
The results for all experimental compositions in this test were replicated three times. After spraying of the formulated test composition, each test unit was allowed to dry for 1 hour and the cap removed. The test units were held for 13 days in a growth chamber at 28° C. and 50-70% relative humidity.

[2] = system: diamondback moth (Plutella xylostella); conditions: for mortality at 10 ppm: rate 10 ppm; for mortality at 2 ppm: rate 2 ppm; for mortality at 0.08 ppm: rate 0.08 ppm; for mortality at 0.4 ppm: rate 0.4 ppm
Procedure: as §1
For evaluating control of diamondback moth (Plutella xylostella), cabbage (var. Stonehead) plants were grown in Metromix potting soil in 10-cm pots in aluminum trays to test size (28 days, 3-4 full leaves) the plants were sprayed to the point of runoff using the turntable sprayer as described in Test I. Test compounds were formulated and sprayed on test plants as described for Test I. After drying for 2 hours, the treated leaves were excised and infested with one cabbage looper per cell and covered. The test units were placed on trays and put in a growth chamber at 25° C. and 60% relative humidity for 4 days.

[3] = system: western flower thrip (Frankliniella occidentalis Pergande)
Procedure: as §1, §2
For evaluating control of the western flower thrip (Frankliniella occidentalis Pergande) through contact and/or systemic means, each test unit consisted of a small open container with a 5- to 7-day-old bean (var. Soleil) plant inside.
Test solutions were formulated and sprayed with 3 replications as described for Test A. After spraying, the test units were allowed to dry for 1 hour, 22 to 27 adult thrips were added to each unit and then a black, screened cap was placed on top. The test units were held for 7 days at 25° C. and 45-55% relative humidity.

[4] = system: cotton melon aphid (Aphis gossypii Glover)
Procedure: as §1, §2
For evaluating control of cotton melon aphid (Aphis gossypii Glover) through contact and/or systemic means, each test unit consisted of a small open container with a 6- to 7-day-old cotton plant inside. This was pre-infested by placing on a leaf of the test plant 30 to 40 aphids on a piece of leaf excised from a culture plant (cut-leaf method). The larvae moved onto the test plant as the leaf piece desiccated. After pre-infestation, the soil of the test unit was covered with a layer of sand.
Test compounds were formulated and sprayed as described for Test A. The applications were replicated three times. After spraying of the formulated test compounds, each test unit was allowed to dry for 1 hour and then a black, screened cap was placed on top. The test units were held for 6 days in a growth chamber at 19-21° C. and 50-70% relative humidity.

[5] = system: green peach aphid (Myzus persicae Sulzer)
Procedure: as §1, §2
For evaluating control of green peach aphid (Myzus persicae Sulzer) through contact and/or systemic means, each test unit consisted of a small open container with a 12- to 15-day-old radish plant inside. This was pre-infested by placing on a leaf of the test plant 30 to 40 aphids on a piece of leaf excised from a culture plant (cut-leaf method). The larvae moved onto the test plant as the leaf piece desiccated. After pre-infestation, the soil of the test unit was covered with a layer of sand.
Test compounds were formulated and sprayed as described in Test A, replicated three times. After spraying of the formulated test compound, each test unit was allowed to dry for 1 hour and then a black, screened cap was placed on top. The test units were held for 6 days in a growth chamber at 19-21° C. and 50-70% relative humidity.

[6] = Plutella xylostella, in Brassica oleracea, read-out: % mortality (obs)
[7] = Plutella xylostella, in Brassica oleracea, rate 100 ppm, read-out: % mortality (obs)
[8] = Plutella xylostella, in Brassica oleracea, rate 1000 ppm, read-out: % mortality (obs)
[9] = Plutella xylostella, in Brassica oleracea, rate 1 ppm, read-out: % mortality (obs)

## CNC(=O)c1cc(C#N)cc(C)c1NC(=O)c1cc(Br)nn1-c1ncccc1Cl [Compund 1]
[1]; rate 7 ppm
  % mortality (obs): 30%
[1]; rate 9 ppm
  % mortality (obs): 53%
[1]; rate 12 ppm
  % mortality (obs): 71%

## N#CCNC(=O)c1cnccc1C(F)(F)F [Flonicamid, flonicamid]
[2]; rate 1
  % mortality: 0%
[2]; rate 15
  % mortality: 60%
[2]; rate 1000
  % mortality: 30%

## spinosad
[2]; rate 10
  % mortality: 100%
[2]; rate 100
  % mortality: 90%
[2]; rate 1000
  % mortality: 100%

## CCOC(=O)NCCOc1ccc(Oc2ccccc2)cc1 [Fenoxycarb, fenoxycarb]
[2]; [6]
  mortality at 10 ppm: 90%
[2]; [7]
  mortality at 100 ppm: 90%
[2]; [8]
  mortality at 1000 ppm: 90%

## pyridaben
[2]; rate 100
  % mortality: 100%
[2]; rate 150
  % mortality: 80%
[2]; rate 200
  % mortality: 100%

## CC1(C)[C@H](C(=O)O[C@H](C#N)c2cccc(Oc3ccccc3)c2)[C@@H]1C=C(Br)Br [Deltamethrin, deltamethrin]
[2]; Plutella xylostella, in Brassica oleracea, rate 0.1 ppm, read-out: % mortality (obs)
  mortality at 0.1 ppm: 90%
[2]; Plutella xylostella, in Brassica oleracea, rate 0.3 ppm, read-out: % mortality (obs)
  mortality at 0.3 ppm: 90%
[2]; [9]
  mortality at 1 ppm: 90%

## CCN(Cc1ccc(Cl)nc1)/C(=C/[N+](=O)[O-])NC [Nitenpyram, nitenpyram]
[2]; rate 30 ppm
  % mortality (obs): 90%
[2]; rate 150 ppm
  % mortality (obs): 90%

## CC1(C)CNC(=NN=C(/C=C/c2ccc(C(F)(F)F)cc2)/C=C/c2ccc(C(F)(F)F)cc2)NC1 [Hydramethylnon, hydramethylnon]
[2]; Plutella xylostella, in Brassica oleracea, rate 0.01 ppm, read-out: % mortality (obs)
  mortality at 0.01 ppm: 70%
[2]; Plutella xylostella, in Brassica oleracea, rate 0.05 ppm, read-out: % mortality (obs)
  mortality at 0.05 ppm: 50%
[2]; Plutella xylostella, in Brassica oleracea, rate 0.2 ppm, read-out: % mortality (obs)
  mortality at 0.2 ppm: 60%

## COC(=O)N(C(=O)N1CO[C@@]2(C(=O)OC)Cc3cc(Cl)ccc3C2=N1)c1ccc(OC(F)(F)F)cc1 [Indoxacarb, indoxacarb]
[2]; rate 0.02 ppm
  % mortality (obs): 80%
[2]; rate 0.05 ppm
  % mortality (obs): 40%

## CC(C)N1C(=O)N(c2ccccc2)CS/C1=N\C(C)(C)C [Buprofezin, buprofezin]
[2]; [6]
  mortality at 10 ppm: 30%
[2]; [8]
  mortality at 1000 ppm: 60%

## dieldrin
[2]; rate 2
  % mortality: 90%
[2]; rate 2.5
  % mortality: 100%
[2]; rate 3
  % mortality: 100%

## O=C(NC(=O)c1c(F)cccc1F)Nc1cc(Cl)c(OC(F)(F)C(F)F)c(Cl)c1 [Hexaflumuron, hexaflumuron]
[3]; Frankliniella occidentalis, rate 10 ppm, read-out: % mortality (obs)
  mortality at 10 ppm: 20%
[3]; Frankliniella occidentalis, rate 3000 ppm, read-out: % mortality (obs)
  mortality at 3000 ppm: 60%
[2]; Plutella xylostella, in Brassica oleracea, rate 0.5 ppm, read-out: % mortality (obs)
  mortality at 0.5 ppm: 70%
[2]; [9]
  mortality at 1 ppm: 30%
[2]; [6]
  mortality at 2 ppm: 70%

## Cc1ccc(/N=C/N(C)/C=N/c2ccc(C)cc2C)c(C)c1 [Amitraz, amitraz]
[2]; rate 10
  % mortality: 70%
[2]; rate 100
  % mortality: 20%
[2]; rate 1000
  % mortality: 50%

## Nc1nc(N)nc(NC2CC2)n1 [Cyromazine, cyromazine]
[2]; Plutella xylostella, in Brassica oleracea, rate 20 ppm, read-out: % mortality (obs)
  mortality at 20 ppm: 60%
[2]; Plutella xylostella, in Brassica oleracea, rate 40 ppm, read-out: % mortality (obs)
  mortality at 40 ppm: 90%
[2]; Plutella xylostella, in Brassica oleracea, rate 60 ppm, read-out: % mortality (obs)
  mortality at 60 ppm: 80%

## O=C(NC(=O)c1c(F)cccc1F)Nc1cc(Cl)c(OC(F)(F)C(F)C(F)(F)F)cc1Cl (centres unmarked) [Lufenuron, lufenuron]
[2]; [6]
  mortality at 0.08 ppm: 80%
  mortality at 0.4 ppm: 80%
  mortality at 2 ppm: 90%

## COc1cccc(C(=O)NN(C(=O)c2cc(C)cc(C)c2)C(C)(C)C)c1C [Methoxyfenozide, methoxyfenozide]
[2]; [6]
  mortality at 0.08 ppm: 90%
  mortality at 0.4 ppm: 90%
  mortality at 2 ppm: 90%
[4]; Aphis gossypii, rate 5 ppm, read-out: % mortality (obs)
  mortality at 5 ppm: 22%
[4]; Aphis gossypii, rate 50 ppm, read-out: % mortality (obs)
  mortality at 50 ppm: 20%
[4]; Aphis gossypii, rate 500 ppm, read-out: % mortality (obs)
  mortality at 500 ppm: 26%

## CS/C(C)=N\OC(=O)N(C)SN(C)C(=O)O/N=C(\C)SC [Thiodicarb, thiodicarb]
[2]; rate 100 ppm
  % mortality (obs): 90%
[2]; rate 1000 ppm
  % mortality (obs): 90%
[2]; rate 3000 ppm
  % mortality (obs): 90%

## CCOP(=S)(OCC)Oc1nc(Cl)c(Cl)cc1Cl [Chlorpyrifos, chlorpyrifos]
[2]; [6]
  mortality at 10 ppm: 80%
[2]; [7]
  mortality at 100 ppm: 40%
[2]; [8]
  mortality at 1000 ppm: 50%

## CNC(=O)ON=C(C)SC [Methomyl, methomyl]
[2]; rate 30
  % mortality: 80%
[2]; rate 40
  % mortality: 90%
[2]; rate 50
  % mortality: 80%

## thiamethoxam
[3]; Thiamethoxam 1 ppm alone
  % Mortality (observed): 33%
[3]; Thiamethoxam 5.5 ppm alone
  % Mortality (observed): 43%
[3]; Thiamethoxam 29 ppm alone
  % Mortality (observed): 43%
[5]; 0.2 ppm
  % Mortality (observed): 23%
[5]; 0.3 ppm
  % Mortality (observed): 23%
[5]; 0.5 ppm
  % Mortality (observed): 93%
[2]; rate 30
  % mortality: 90%
[2]; rate 40
  % mortality: 100%
[2]; rate 50
  % mortality: 100%
[4]; Thiamethoxam 0.5 ppm
  % Mortality (observed): 22%
[4]; Thiamethoxam 0.8 ppm
  % Mortality (observed): 83%
[4]; Thiamethoxam 1 ppm
  % Mortality (observed): 91%
[1]; Thiamethoxam 15 ppm alone
  % Mortality (observed): 53%
[1]; Thiamethoxam 26 ppm alone
  % Mortality (observed): 65%

## CCc1ccc(C(=O)NN(C(=O)c2cc(C)cc(C)c2)C(C)(C)C)cc1 [Tebufenozide, tebufenozide]
[2]; Plutella xylostella, in Brassica oleracea, rate 150 ppm, read-out: % mortality (obs)
  mortality at 150 ppm: 90%
[2]; Plutella xylostella, in Brassica oleracea, rate 200 ppm, read-out: % mortality (obs)
  mortality at 200 ppm: 90%
[2]; Plutella xylostella, in Brassica oleracea, rate 300 ppm, read-out: % mortality (obs)
  mortality at 300 ppm: 90%

## CNC(=O)O/N=C(\SC)C(=O)N(C)C [Oxamyl, oxamyl]
[2]; rate 1 ppm
  % mortality (obs): 60%
